According to patent US9254331B2, “Sulforaphane stabilization” (AURIGA INTERNATIONAL, priority 2010, dated 2016):

Tests used:
[1] = allyl isothiocyanate sample treated one hour in boiling water, cited from earlier work
[2] = not given; remark: listed apart in the source
[3] = NMR
[4] = cited from earlier work
[5] = after seven months, cited from earlier work
[6] = mixture of isoamyl salicylate, capric/caprylic triglyceride and silicone derivative, 2% sulforaphane
[7] = remark: listed apart in the source
Method: The stability of sulforaphane was investigated in the following way: a 1% sulforaphane solution is prepared in different media to be tested. The preparation, maintained in a closed container is then thermostated at 25° C., 37° C. or 40° C. Kinetic tracking is carried out by assaying the residual sulforaphane.
The HPLC method used is the following:
Column: Discovery C18 (15 cm×4.8 mm×5 μm)
Mobile Phase: isocratic CH3CN/H2O (50/50)
Injection (10 μL) after dilution of the parent solution in the mobile phase in order to obtain a sulforaphane concentration of 1 mg/mL.
External standard: naphthalene.
1% of sulforaphane were placed per mL of solution containing diphospholipides such as for example Phosal®. The preparation, maintained in a closed container is then thermostated at 40° C. Kinetic tracking is carried out by assaying the residual sulforaphane:
1% m/m sulforaphane solutions were prepared in each anhydrous ester mentioned above. Kinetic tracking of the degradation was then carried out at 40° C. by using naphthalene as an external standard.
Kinetic tracking of the degradation was then carried out at 40° C. by using naphthalene, as an external standard.

[8] = Stabilization of isothiocyanates with ascorbic acid upon storage; conditions: similar study with sulforaphane
Description: Further, it is also known how to stabilize allyl isothiocyanate with ascorbic acid.

[9] = closed flask, non-inertized, exposed to light

Compound: C1=CSSC1 [3H-1,2-dithiolene]
- Concentration at pH 2.7 [1]: 0.13 mg/g
- Concentration at pH 7.0 [1]: 0.17 mg/g
- Concentration at pH 9.0 [1]: 0.19 mg/g

Compound: C=CCN=C=S [allyl isothiocyanate, reference compound]
- Concentration at pH 2.7 [1]: 379.06 mg/g
- Concentration at pH 7.0 [1]: 290.27 mg/g
- Concentration at pH 9.0 [1]: 270.46 mg/g

Compound: C=CCSSCC=C [diallyl disulfide]
- Concentration at pH 2.7 [1]: 8.09 mg/g
- Concentration at pH 7.0 [1]: 11.47 mg/g
- Concentration at pH 9.0 [1]: 12.71 mg/g

Compound: C1=CSSSC1 [4H-1,2,3-trithiin]
- Concentration at pH 2.7 [1]: Traces
- Concentration at pH 7.0 [1]: Traces
- Concentration at pH 9.0 [1]: Traces

Compound: CC1CSSSS1 (centres unmarked) [5-methyl-1,2,3,4-tetrathiane]
- Concentration at pH 2.7 [1]: 0.01 mg/g
- Concentration at pH 7.0 [1]: 0.02 mg/g
- Concentration at pH 9.0 [1]: 0.03 mg/g

Compound: C[S+]([O-])CCCCN=C=S (centres unmarked) [sulforaphane]
- product degraded into 3-butenylisothiocyanate on injection in gas chromatography (thermostated injector at 250° C.): 80%
- degradation when injected directly onto the column (without passing through the injector): no degradation peak is observed
- solubility in argan oil ([2]; argan oil): ~2%
- solubility in eglantine rose oil ([2]; eglantine rose oil): ~3.5%
- solubility in anhydrous esters ([2]; ester 610, methyl salicylate, isoamyl salicylate (Example 1)): > 6 % (m/m)
- solubility in jojoba oil ([2]; jojoba oil): about 0.5 % (m/m)
- solubilization in cosmetic formulation ([2]; mixture of isoamyl salicylate, capric/caprylic triglyceride and silicone derivative): 2%
- solubility in pure anhydrous esters ([2]; triethylpropane triostearate, coco caprylate-caprate (Example 4)): > 6 % (m/m)
- degradation on heating with reflux in chloroform ([3]; 24 hour reflux): did not either show any degradation
- stability in solution in DMSO [3, 9]: stable for at least one week
- stability in solution in chloroform [3, 9]: stable for at least one week
- degradation under accelerated versus normal ageing conditions ([4]; 50% of acacia gum, 40° C./75% humidity versus 25° C./60% humidity): twice more significant
- degradation with 70% gum arabic at 25° C. ([4]; 70% gum arabic, 25° C., first week, then relatively stable): slight degradation
- degradation with 70% gum arabic ([4]; 70% gum arabic, after one month, 40° C.): ≤ 30%
- stabilization with 50% of acacia gum ([4]; sample having 50% of acacia gum): does not exhibit any particular stabilization
- degradation with less suitable cyclodextrins ([5]; less suitable, not very stabilizing cyclodextrins): up to 50%
- degradation with α-cyclodextrins ([5]; α-cyclodextrins): less than 10%
- penetration into the skin [6]: good penetration into the skin
- degradation in 2-octyl-dodecanol and dimethyl isosorbide ([7]; 1% (m/m) in 2-octyl-dodecanol (Nerol 20) and dimethyl isosorbide): degraded over time
- degradation in vegetable oils ([7]; 1% (m/m) in jojoba, argan and eglantine rose oils): too substantial to allow commercial use
- degradation in isostearate and coco caprylate-caprate ([7]; 1% (m/m) in triethylpropane triostearate and coco caprylate-caprate CCC, 40° C.): negligible
- degradation in phospholipid medium ([7]; 1% in solution containing phospholipids (Phosal), 40° C., in less than 3 days): more than 40%
- degradation in anhydrous esters ([7]; 1% m/m in ester 610, methyl salicylate, isoamyl salicylate, 40° C.): negligible
- loss of sulforaphane ([7]; 1% solution in water, 40° C., after 2 days): 10%
- remaining fraction of initial content ([7]; 1% solution in water, 40° C., after 10 days): 50%
- degradation in cosmetic formulation ([7]; 2% (m/m) in isoamyl salicylate, capric/caprylic triglyceride and silicone derivative, 6 months at 40° C.): 3-5%
- degradation in galenic formulation ([7]; 2% sulforaphane, 2 anhydrous esters and methylpolysiloxane A or B): no degradation is observed
- time after which residual sulforaphane begins to fall ([7]; antioxidant hydro-alcoholic medium, 25° C.): 1 days
- remaining fraction of initial amount ([7]; antioxidant hydro-alcoholic medium, 37° C., in less than 7 days): no more than 50%
- degradation trend in ethanol ([7]; ethanol, 40° C., early days, coupling compound with ethanol formed): very dearly marked
- degradation in tocopheryl acetate ([7]; tocopheryl acetate): no significant degradation
- stabilization of sulforaphane by ascorbic acid [8]: not able to stabilize

Compound: C=CCSSSSCC=C [diallyl tetrasulfide]
- Concentration at pH 2.7 [1]: Traces
- Concentration at pH 7.0 [1]: Traces
- Concentration at pH 9.0 [1]: Traces

Compound: C=CCSC#N [allyl thiocyanate]
- Concentration at pH 2.7 [1]: 9.21 mg/g
- Concentration at pH 7.0 [1]: 13.84 mg/g
- Concentration at pH 9.0 [1]: 12.32 mg/g

Compound: C=CC1SC=CCS1 (centres unmarked) [2-vinyl-4-1,3-dithiin]
- Concentration at pH 2.7 [1]: Traces
- Concentration at pH 7.0 [1]: Traces
- Concentration at pH 9.0 [1]: Traces

Compound: C=CCSCC=C [diallyl sulfide]
- Concentration at pH 2.7 [1]: 13.09 mg/g
- Concentration at pH 7.0 [1]: 22.16 mg/g
- Concentration at pH 9.0 [1]: 26.40 mg/g

Compound: C=CCSSSCC=C [diallyl trisulfide]
- Concentration at pH 2.7 [1]: 10.31 mg/g
- Concentration at pH 7.0 [1]: 13.63 mg/g
- Concentration at pH 9.0 [1]: 14.11 mg/g
